Experimental data from US20250376469A1, “INDOLIZINE DERIVATIVES FOR TREATING TRPM3-MEDIATED DISORDERS” (Katholieke Universiteit Leuven, priority 2022, published 2025).

Target: T1, mouse TRPM3α2 (mTRPM3) ion channel (Mus musculus, UniProt J9SQF3)
T1 construct: expressed in transfected cells; host or cells: flip-in HEK293
Assay: TRPM3 ion channel driven Ca2+ uptake (Fluo-4 AM assay, pregnenolone sulfate stimulated)
Type: cell-based
Conditions: TRPM3 overexpressing flip-in HEK293 cells, channel opened with pregnenolone sulfate (PS) 50 μM, 2.4 mM Ca2+
Procedure: In order to monitor the inhibition of the mouse TRPM3α2 (mTRPM3) ion channel by the compounds of the invention, a cellular system making use of an mTRPM3alpha2 or hTRPM3 overexpressing cell line (flip-in HEK293) was used. The TRPM3 channel was stimulated/opened with Pregnenolone sulfate (PS) (50 μM) which results in Ca^2+ influx.
For mTRPM3, the intracellular Ca^2+ was measured with a Calcium responsive dye, Fluor-4 AM ester (Invitrogen). Cells were cultured until a confluence of 80-90%, washed with Versene (Invitrogen) and detached from the surface by a short incubation with 0.05% Trypsin (Invitrogen). The trypsination process was stopped by the addition of complete cell culture medium (DMEM, glutamax, 10% FCS, NEAA, Pen-Strep). Cells were collected and resuspended in Krebs buffer without Calcium at RT.
Prior the cell seeding (±2000 cells/well into a black, 384 well plate (Greiner)) the diluted compound was added in the assay plate, together with the PS dissolved in Krebs buffer containing Calcium. […] Directly after cell addition the plates were read on an Envision fluorescence reader (Perkin Elmer) by an Excitation of 485 nm and emission at 535 nm.
Channel inhibition was calculated compared to a non-PS stimulated control versus a condition stimulated with PS (50 μM) with vehicle. The ability of a the compounds of the invention to inhibit this activity was determined as: Percentage inhibition=[1−((RFU determined for sample with test compound present−RFU determined for sample with positive control inhibitor) divided by (RFU determined in the presence of vehicle−RFU determined for sample with positive control inhibitor))]*100.
The activities of the Example compounds […] tested are depicted in the table below. The activity ranges A, B and C refer to IC50 values in the Fluo-4 AM assay as follows: […]

T1 sequence (J9SQF3 1-1709 isoform J9SQF3-12): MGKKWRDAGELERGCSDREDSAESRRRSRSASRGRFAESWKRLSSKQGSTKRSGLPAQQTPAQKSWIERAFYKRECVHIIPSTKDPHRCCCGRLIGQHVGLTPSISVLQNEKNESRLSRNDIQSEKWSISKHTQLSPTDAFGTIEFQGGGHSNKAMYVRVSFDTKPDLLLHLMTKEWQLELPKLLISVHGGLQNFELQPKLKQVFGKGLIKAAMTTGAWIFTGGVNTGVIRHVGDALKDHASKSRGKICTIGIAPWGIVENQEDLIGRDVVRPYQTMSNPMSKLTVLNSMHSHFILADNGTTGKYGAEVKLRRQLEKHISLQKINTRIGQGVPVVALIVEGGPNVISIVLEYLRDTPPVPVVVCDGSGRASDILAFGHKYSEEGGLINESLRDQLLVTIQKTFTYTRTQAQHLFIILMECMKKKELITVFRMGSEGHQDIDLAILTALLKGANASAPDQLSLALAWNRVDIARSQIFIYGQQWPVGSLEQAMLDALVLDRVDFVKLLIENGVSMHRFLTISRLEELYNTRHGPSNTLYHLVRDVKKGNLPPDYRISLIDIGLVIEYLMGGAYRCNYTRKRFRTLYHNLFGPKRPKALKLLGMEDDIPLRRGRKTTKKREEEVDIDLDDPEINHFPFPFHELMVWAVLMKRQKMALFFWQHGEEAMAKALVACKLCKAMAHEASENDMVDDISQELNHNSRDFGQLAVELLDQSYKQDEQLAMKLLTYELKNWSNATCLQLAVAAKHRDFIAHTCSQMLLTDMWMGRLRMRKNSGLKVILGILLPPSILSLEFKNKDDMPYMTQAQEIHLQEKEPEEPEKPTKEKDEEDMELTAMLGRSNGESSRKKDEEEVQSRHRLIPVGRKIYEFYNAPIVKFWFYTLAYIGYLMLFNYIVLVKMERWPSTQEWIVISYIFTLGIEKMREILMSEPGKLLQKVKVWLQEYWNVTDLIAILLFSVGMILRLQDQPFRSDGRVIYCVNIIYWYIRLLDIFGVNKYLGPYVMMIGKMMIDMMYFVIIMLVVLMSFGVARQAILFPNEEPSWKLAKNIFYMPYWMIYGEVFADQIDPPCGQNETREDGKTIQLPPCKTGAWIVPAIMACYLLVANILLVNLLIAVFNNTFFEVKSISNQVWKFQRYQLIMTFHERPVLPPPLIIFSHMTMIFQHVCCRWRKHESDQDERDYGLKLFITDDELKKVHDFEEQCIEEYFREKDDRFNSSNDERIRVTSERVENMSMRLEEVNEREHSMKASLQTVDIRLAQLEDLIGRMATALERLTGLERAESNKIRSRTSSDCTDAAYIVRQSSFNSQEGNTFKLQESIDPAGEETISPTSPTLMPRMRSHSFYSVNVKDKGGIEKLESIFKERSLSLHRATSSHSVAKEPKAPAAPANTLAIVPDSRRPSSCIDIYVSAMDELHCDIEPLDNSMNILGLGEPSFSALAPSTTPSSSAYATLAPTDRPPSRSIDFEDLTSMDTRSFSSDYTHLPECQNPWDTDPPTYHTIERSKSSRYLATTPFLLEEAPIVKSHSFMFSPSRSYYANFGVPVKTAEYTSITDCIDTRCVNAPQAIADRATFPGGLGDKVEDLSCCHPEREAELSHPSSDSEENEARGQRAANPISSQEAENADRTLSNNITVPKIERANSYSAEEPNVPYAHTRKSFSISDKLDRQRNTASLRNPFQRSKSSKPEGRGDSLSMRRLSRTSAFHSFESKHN

| IC50 | SMILES |
| --- | --- |
| < 1000 nM | Cc1cc2ccc(OCc3ccccn3)cn2c1C(=O)NC(C)(CO)CO [Cpd 015, N-(1,3-dihydroxy-2-methylpropan-2-yl)-2-methyl-6-[(pyridin-2-yl)methoxy]indolizine-3-carboxamide] |
| 1000 to 20000 nM | Cc1cc2ccc(OCc3cccnc3)cn2c1C(=O)NC(CO)CC(F)(F)F (single isomer, unassigned) [Cpd 042 - En2] |
| < 1000 nM | Cc1cc2ccc(OCc3ccccc3F)cn2c1C(=O)NC1(CO)CCNC1=O (single isomer, unassigned) [Cpd 007 - En1] |
| < 1000 nM | Cc1cc2ccc(OCc3ccccc3F)cn2c1C(=O)NC(C)(CO)C(N)=O (single isomer, unassigned) [Cpd 005 - En2, 2-({6-[(2-fluorophenyl)methoxy]-2-methylindolizin-3-yl}formamido)-3-hydroxy-2-methylpropanamide] |
| < 1000 nM | Cc1cc2ccc(OCc3ccccc3F)cn2c1C(=O)N[C@@H](CO)C(N)=O [Cpd 003, (2S)-2-({6-[(2-fluorophenyl)methoxy]-2-methylindolizin-3-yl}formamido)-3-hydroxypropanamide] |
| > 20000 nM | CC(=O)C(C)NC(=O)c1c(C)cc2ccc(OCC(F)F)cn12 (single isomer, unassigned) [Cpd 028 - En1] |
| > 20000 nM | Cc1cc2ccc(OCc3cccnc3C(F)(F)F)cn2c1C(=O)NC(CO)CC(F)(F)F (single isomer, unassigned) [Cpd 044 - En1] |
| 1000 to 20000 nM | Cc1cc2ccc(OCc3cnccn3)cn2c1C(=O)NC(CO)CC(F)(F)F (single isomer, unassigned) [Cpd 041 - En1] |
| 1000 to 20000 nM | Cc1cc2ccc(OCc3cccnc3C(F)(F)F)cn2c1C(=O)NC1(CO)CCNC1=O (single isomer, unassigned) [Cpd 039 - En2] |
| < 1000 nM | Cc1cc2ccc(OCC3CC3)cn2c1C(=O)NC(C)(CO)C(N)=O (single isomer, unassigned) [Cpd 019 - En1] |
| < 1000 nM | Cc1cc2ccc(OCc3cccnc3)cn2c1C(=O)NC(CO)CC(F)(F)F (single isomer, unassigned) [Cpd 042 - En1] |
| > 20000 nM | Cc1cc2ccc(OCC(F)F)cn2c1C(=O)NC1CNCCC1(F)F (single isomer, unassigned) [Cpd 027 - En2] |
| > 20000 nM | Cc1cc2ccc(OCc3ccccn3)cn2c1C(=O)NC1CNCCC1(F)F (single isomer, unassigned) [Cpd 017 - En2, N-(4,4-difluoropiperidin-3-yl)-2-methyl-6-[(pyridin-2-yl)methoxy]indolizine-3-carboxamide] |
| < 1000 nM | Cc1cc2ccc(OCc3ccccn3)cn2c1C(=O)NC(C)(CO)CC(F)F (single isomer, unassigned) [Cpd 036 - En1] |
| < 1000 nM | COc1ncccc1COc1ccc2cc(C)c(C(=O)NC3(CO)CCNC3=O)n2c1 (single isomer, unassigned) [Cpd 038 - En1] |
| 1000 to 20000 nM | Cc1cc2ccc(OCc3ccccn3)cn2c1C(=O)NC(CO)C(N)=O (single isomer, unassigned) [Cpd 033 - En1] |
| < 1000 nM | Cc1ncc(COc2ccc3cc(C)c(C(=O)NC(C)(CO)C(N)=O)n3c2)s1 (single isomer, unassigned) [Cpd 029 - En1, 3-hydroxy-2-methyl-2-({2-methyl-6-[(2-methyl-1,3-thiazol-5-yl)methoxy]indolizin-3-yl}formamido)propanamide] |
| < 1000 nM | Cc1cc2ccc(OCc3ccccn3)cn2c1C(=O)NC(CO)C(N)=O (single isomer, unassigned) [Cpd 033 - En2] |
| < 1000 nM | Cc1cc2ccc(OCc3ccccc3)cn2c1C(=O)NC(C)(CO)CC(F)F (single isomer, unassigned) [Cpd 035 - En1] |
| < 1000 nM | Cc1cc2ccc(OCC3CC3)cn2c1C(=O)NC1(CO)CCNC1=O (single isomer, unassigned) [Cpd 021 - En1] |
| 1000 to 20000 nM | Cc1cc2ccc(OCc3ccccc3F)cn2c1C(=O)NC1CNCCC1(F)F (stereo not drawn) [Cpd 008, N-(4,4-difluoropiperidin-3-yl)-6-[(2-fluorophenyl)methoxy]-2-methylindolizine-3-carboxamide] |
| 1000 to 20000 nM | Cc1cc2ccc(OCc3cccnc3)cn2c1C(=O)NC1(CO)CCNC1=O (single isomer, unassigned) [Cpd 037 - En2] |
| 1000 to 20000 nM | CC(=O)C(C)NC(=O)c1c(C)cc2ccc(OCC3CC3)cn12 (single isomer, unassigned) [Cpd 023 - En1] |

| IC50 | SMILES |
| --- | --- |
| < 1000 nM | COc1ncccc1COc1ccc2cc(C)c(C(=O)NC(CO)CC(F)(F)F)n2c1 (single isomer, unassigned) [Cpd 043 - En1] |
| < 1000 nM | COCC(C)(CO)NC(=O)c1c(C)cc2ccc(OCc3ccccn3)cn12 (single isomer, unassigned) [Cpd 032 - En2] |
| 1000 to 20000 nM | Cc1cc2ccc(OCc3ccccn3)cn2c1C(=O)NC1CNCCC1(F)F (single isomer, unassigned) [Cpd 017 - En1, N-(4,4-difluoropiperidin-3-yl)-2-methyl-6-[(pyridin-2-yl)methoxy]indolizine-3-carboxamide] |
| 1000 to 20000 nM | Cc1cc2ccc(OCc3c(F)cnn3C)cn2c1C(=O)NC1(CO)CCNC1=O (single isomer, unassigned) [Cpd 040 - En2] |
| < 1000 nM | Cc1cc2ccc(OCc3ccccc3)cn2c1C(=O)NC(CO)C(N)=O (single isomer, unassigned) [Cpd 034 - En1] |
| < 1000 nM | Cc1cc2ccc(OCc3cccnc3)cn2c1C(=O)NC1(CO)CCNC1=O (single isomer, unassigned) [Cpd 037 - En1] |
| 1000 to 20000 nM | Cc1ncc(COc2ccc3cc(C)c(C(=O)NC(C)C(N)=O)n3c2)s1 (stereo not drawn) [Cpd 031, 2-({2-methyl-6-[(2-methyl-1,3-thiazol-5-yl)methoxy]indolizin-3-yl}formamido)propanamide] |
| < 1000 nM | Cc1cc2ccc(OCC3CC3)cn2c1C(=O)NC(C)(CO)CO [Cpd 020, 6-(cyclopropylmethoxy)-N-(1,3-dihydroxy-2-methylpropan-2-yl)-2-methylindolizine-3-carboxamide] |
| < 1000 nM | Cc1cc2ccc(OCc3cccnc3C(F)(F)F)cn2c1C(=O)NC1(CO)CCNC1=O (single isomer, unassigned) [Cpd 039 - En1] |
| < 1000 nM | Cc1cc2ccc(OCc3ccccc3F)cn2c1C(=O)N[C@@H](C)C(N)=O [Cpd 002, (2S)-2-({6-[(2-fluorophenyl)methoxy]-2-methylindolizin-3-yl}formamido)propanamide] |
| 1000 to 20000 nM | Cc1cc2ccc(OCC3CC3)cn2c1C(=O)NC(C)(CO)C(N)=O (single isomer, unassigned) [Cpd 019 - En2] |
| < 1000 nM | Cc1ncc(COc2ccc3cc(C)c(C(=O)NC(C)(CO)CO)n3c2)s1 [Cpd 030, N-(1,3-dihydroxy-2-methylpropan-2-yl)-2-methyl-6-[(2-methyl-1,3-thiazol-5-yl)methoxy]indolizine-3-carboxamide] |
| 1000 to 20000 nM | Cc1cc2ccc(OCc3ccccn3)cn2c1C(=O)NC(C)C(N)=O (single isomer, unassigned) [Cpd 018 - En1] |
| < 1000 nM | Cc1cc2ccc(OCc3c(F)cnn3C)cn2c1C(=O)NC1(CO)CCNC1=O (single isomer, unassigned) [Cpd 040 - En1] |
| 1000 to 20000 nM | Cc1cc2ccc(OCc3ccccn3)cn2c1C(=O)NC(C)(CO)C(N)=O (single isomer, unassigned) [Cpd 014 - En2] |
| 1000 to 20000 nM | Cc1cc2ccc(OCc3ccccc3F)cn2c1C(=O)NC1(CO)CCNC1=O (single isomer, unassigned) [Cpd 007 - En2] |
| > 20000 nM | Cc1cc2ccc(OCc3cnccn3)cn2c1C(=O)NC1(CO)CCNC1=O (single isomer, unassigned) [Cpd 046 - En2] |
| < 1000 nM | Cc1cc2ccc(OCc3cccnc3C(F)(F)F)cn2c1C(=O)NC(CO)CC(F)(F)F (single isomer, unassigned) [Cpd 044 - En2] |
| 1000 to 20000 nM | Cc1cc2ccc(OCc3scnc3C)cn2c1C(=O)NC1(CO)CCOCC1 [Cpd 001, N-[4-(hydroxymethyl)oxan-4-yl]-2-methyl-6-[(4-methyl-1,3-thiazol-5-yl)methoxy]indolizine-3-carboxamide] |
| 1000 to 20000 nM | Cc1ncc(COc2ccc3cc(C)c(C(=O)NC(C)(CO)C(N)=O)n3c2)s1 (single isomer, unassigned) [Cpd 029 - En2, 3-hydroxy-2-methyl-2-({2-methyl-6-[(2-methyl-1,3-thiazol-5-yl)methoxy]indolizin-3-yl}formamido)propanamide] |
| < 1000 nM | Cc1cc2ccc(OCc3ccccc3F)cn2c1C(=O)NC(C)(CO)C(N)=O (single isomer, unassigned) [Cpd 005 - En1, 2-({6-[(2-fluorophenyl)methoxy]-2-methylindolizin-3-yl}formamido)-3-hydroxy-2-methylpropanamide] |
| > 20000 nM | COc1ncccc1COc1ccc2cc(C)c(C(=O)NC(CO)CC(F)(F)F)n2c1 (single isomer, unassigned) [Cpd 043 - En2] |
